Experimental data reported in patent publication US6048840A, “Hypoglycaemic peptides” (Monash University, priority 1987, dated 2000).
Non-standard residues stand in square brackets, D forms with d. No end group written: not given here.

Experiments:
[1] = tested on: cultured muscle cells (L6 rat skeletal muscle cell line); test: Cultured cell assay for stimulation of glucose uptake; assay type: cell-based; conditions: peptide 10 μg/ml
From the text: (§1) In these assays collagenase-dispersed rat adipocytes, cultured muscle cells (L6 rat skeletal muscle cell line) and hemidiaphragm preparations were employed.
(§2) The effect of the β imide form peptides on glucose metabolism is further shown by their ability to stimulate glucose uptake and glycogen synthesis by cultured muscle cells and isolated rat hemidiaphragms.

[2] = tested on: isolated rat hemidiaphragms; test: Isolated muscle assay for stimulation of glycogen synthesis; assay type: cell-based; conditions: peptide 100 μg/ml
From the text: as §1, §2

rats = test: Change in blood glucose level in rats following intravenous injection of peptides; assay type: in vivo, rat
From the text: (i) Effect on basal blood glucose levels
Values are changes (means ±SEM) of blood glucose from the basal level (4.0-4.4 mmol glucose/l) at time 0. Differences between the control and test groups were statistically evaluated according to Student's t-test. N.S. indicates 2P>0.05.

| Substance | Rate of Increase from Basal (glucose uptake) [1] | Rate of Increase from Basal (glycogen synthesis) [2] | other results |
| --- | --- | --- | --- |
| SRLFDNA [Pep P015, synthetic peptide; b240 implies β imide form] | 1.5 μmol glucose/hour | – | – |
| CYLSRLFDNN [Pep P197] | – | 0.17 μmol glycogen/g tissue/h | – |
| CYLSRLFDNA [Pep P168] | 4.0 μmol glucose/hour | – | – |
| Pep (6-15): α-form synthetic peptide equivalent to hGH residues 6-15 (LSRLFDNAML; Somatotropin; UniProt P01241 32-41, looked up, fragment) | – | – | Difference from control means (rats; i.v., peptide 0.5 μmol/100 g, control decrease 1.05): 0.21 mmol/L; Hypoglycaemic effect / activity in words (rats; intravenous injection of peptide): active only in the β imide form; Decrease in blood glucose from basal levels (rats; intravenous injection, peptide 0.5 μmol/100 g, basal level 4.0-4.4 mmol glucose/l at time 0): 1.26 mmol glucose/l |
| LSRIFDNA [Pep P087] | – | 0.36 μmol glycogen/g tissue/h | – |
| LSRLFDNAG [Pep P063] | 1.9 μmol glucose/hour | – | – |
| CYLSRLFDNA [Pep P202] | 1.9 μmol glucose/hour | 0.44 μmol glycogen/g tissue/h | – |
| LSRLFDQA [Pep P076] | – | 0.30 μmol glycogen/g tissue/h | – |
| LSRLHDNA [Pep P078] | – | 0.11 μmol glycogen/g tissue/h | – |
| LSRLFDNA [Pep P051, b240 implies β imide form] | 3.3 μmol glucose/hour | 0.74 μmol glycogen/g tissue/h | – |
| LSKLFDNA [Pep P090] | – | 0.16 μmol glycogen/g tissue/h | – |
| LSRVFDNA [Pep P086] | 4.9 μmol glucose/hour | – | – |
| LSRL[dF]DNA [Pep P057] | 2.0 μmol glucose/hour | – | – |
